Experimental data taken from patent publication US7012129B2, “Antiviral composition comprising glycine amide” (priority 2001, dated 2006).
Peptide text beside a SMILES is read from it.

Assays:
[1] = tested on: HIV-1; settings: for effect on HIV replication/infectivity (in words): 100 μM concentration; for p24 ng/ml Mean: 100 μM peptide, culture supernatant, day 7 after infection (FIG. 1), infected control 53.31
Text: The tripeptide amides made according to EXAMPLE 1 were used in several HIV-1 infectivity assays to determine the ability of said tripeptide amides to inhibit HIV replication and/or infection. The efficiency of HIV-1 replication and status of HIV-1 infection was monitored by the concentration of p24 protein in the cell supernatant.
In a first set of experiments, approximately 3×10^5 H9 cells were infected with HIV-1 (e.g., 50–100 TCID50 per 300,000 H9 cells) to test the inhibitory effect of various tripeptide amides provided at 100 μM concentration.
By one approach, virus was added at 50–100 TCID50 to 3×10^5 H9 cells in a total volume of 500 μl containing RPMI 1640 medium supplemented with 10% (v/v) heat-inactivated fetal bovine serum (FBS), L-Glutamine, and Bensylpenicillin and Streptomycin (PS) (approximately 0.5 ml added to 500 ml RPMI medium), all available through LifeTechnology/GIBCO laboratories. This media is referred to as “RPMI++ media.” Cell counting was accomplished using 0.2% tryphanblue dissolved in PBS and a Bürker cell counter chamber. The virus and cells were then mixed gently on a vortex and were incubated at 37° C. for one hour and thirty minutes. Next, the cells were pelleted at 1200 rpm for 7 minutes and the supernatant was discarded.
(§1) The cells were then resuspended in RPMI++ at a concentration of 3×10^5 cells per ml. […] Cells were then incubated at 37° C. in a 5% CO2 enriched incubator. The medium was changed on day 4, 7, and finally day 11. The infection was stopped on day 11 or 14. During each media change, approximately 0.8 ml was replaced and 0.8 ml of the supernatant was transferred to a sterile 96 well plate and stored at −80° C. for p24 analysis.
(§2) The presence of p24 in the supernatants was determined using a p24 antigen detection method. […] By one approach, a capture-assay is employed, wherein the viral antigen is captured on a 96-well plate coated with a polyclonal anti-p24 rabbit serum (Swedish Institute for infectious disease control). The captured antigen is then detected with peroxidase conjugated anti-p24 mouse monoclonal antibodies. The conjugate is a pool of three different monoclonal antibodies. The analysis was performed with cell free supernatant directly from the cell culture or with supernatant that had been stored at −20° C. to −80° C.
Accordingly, a p24 standard was diluted (e.g., 4, 2, 1, 0.5, 0.25, 0.125, 0.0625 ng/ml) in RPMI++ media. […] In some cases, serial dilutions of the supernatants were made so as to more accurately detect p24 concentration. Coated plates (e.g., plates coated with a polyclonal anti-p24 rabbit serum) were washed 4 times with approximately 300–350 μl/well washing buffer (PBS with 0.05% Tween-20). The plates were inverted and tapped against absorbant paper after each wash to discard the superfluous washing buffer. Approximately, 100 μl of each sample and standard was added to individual wells on the plate. The plates were covered with tape and incubated at 37° C. for 2 hours or in the dark at room temperature over night.
Next, the plates were washed again as above. Approximately 100 μl/well of conjugate diluted in conjugate buffer (PBS with 0.5% Triton X-100, 0.5% Bovine Serum Albumin, 0.05% Tween-20, and 10% Fetal Bovine Serum). The plates were then covered with tape and incubated at 37° C. for 2 to 4 hours.

[2] = tested on: HIV; assay: Electron microscopy of HIV budding in treated HUT78 cells (nodular structures); format: cell-based
[3] = tested on: HIV-1; settings: for Mean p24: CEM cells, 100 μM, culture supernatant, day 11 after infection (FIG. 2), inf. control 1.62; for inhibition of HIV-1 replication (in words): infected CEM cells, 100 μM concentration
Experimental: By one approach, virus was added at 50–100 TCID50 to 3×10^5 H9 cells in a total volume of 500 μl containing RPMI 1640 medium supplemented with 10% (v/v) heat-inactivated fetal bovine serum (FBS), L-Glutamine, and Bensylpenicillin and Streptomycin (PS) (approximately 0.5 ml added to 500 ml RPMI medium), all available through LifeTechnology/GIBCO laboratories. […] The virus and cells were then mixed gently on a vortex and were incubated at 37° C. for one hour and thirty minutes. Next, the cells were pelleted at 1200 rpm for 7 minutes and the supernatant was discarded.
as §1, §2
Accordingly, a p24 standard was diluted (e.g., 4, 2, 1, 0.5, 0.25, 0.125, 0.0625 ng/ml) in RPMI++ media. The standard, recombinant HIV-1 LAI gag p24, was purchased from NIBSC, Centralized Facility for AIDS Reagent, MRC. (order no EVA620). In some cases, serial dilutions of the supernatants were made so as to more accurately detect p24 concentration. Coated plates (e.g., plates coated with a polyclonal anti-p24 rabbit serum) were washed 4 times with approximately 300–350 μl/well washing buffer (PBS with 0.05% Tween-20). The plates were inverted and tapped against absorbant paper after each wash to discard the superfluous washing buffer. Approximately, 100 μl of each sample and standard was added to individual wells on the plate. The plates were covered with tape and incubated at 37° C. for 2 hours or in the dark at room temperature over night.
Next, the plates were washed again as above. Approximately 100 μl/well of conjugate diluted in conjugate buffer (PBS with 0.5% Triton X-100, 0.5% Bovine Serum Albumin, 0.05% Tween-20, and 10% Fetal Bovine Serum). The plates were then covered with tape and incubated at 37° C. for 2 to 4 hours. The OPD substrate (ABBOTT) was then prepared by adding 1 tablet of OPD per 5 ml OPD substrate solution (12.8 mg OPD (o-phenylenediamine. 2 HCl) per tablet and 1 tablet was dissolved in 5 ml citrate-phosphate buffer containing 0.02% hydrogen peroxidase). The solution was kept in the dark until it was used. The conjugate bound plates were then washed as above and, after the final wash, 100 μof OPD substrate solution/well was added and the plates were incubated at room temperature for 30 minutes.

[4] = tested on: HIV; assay: Electron microscopy of HIV budding in treated ACH-2 cells (nodular structures); format: cell-based
[5] = HIV infected H9 cells, 100 μM, day 11 (FIG. 3)
[6] = ACH-2 cells, electron microscopy

With CC[C@H](C)[C@H](NC(=O)[C@H](C)N)C(=O)NCC(N)=O [AIG-NH2, alanyl-isoleucyl-glycine-amide] (H-Ala-Ile-Gly-NH2) the “effect on HIV replication/infectivity (in words)” value ([1]; H9 cells) was “almost completely inhibited HIV replication” and the “p24 ng/ml Mean” value ([1]; H9 cells) was 10.69 ng/mL.
With CC(C)C[C@H](NC(=O)[C@H](C)N)C(=O)NCC(N)=O [ALG-NH2, alanyl-leucyl-glycine-amide] (H-Ala-Leu-Gly-NH2) the “dense nodular structure attached to the outer part of viral envelope” value (from here on “dense nodular structure attached”) [2] was 8% and the “treated cells carrying virus particles that had nodular structures on outer membrane” value [2] was 56%.
In the case of C[C@H](N)C(=O)N1CCC[C@H]1C(=O)NCC(N)=O [APG-NH2, alanyl-prolyl-glycine-amide] (H-Ala-Pro-Gly-NH2), the “Mean p24” value [3] is reported as 0.01 ng/mL, the “inhibition of HIV-1 replication (in words)” value [3] is reported as “inhibit HIV-1 replication” and the “effect on HIV replication/infectivity (in words)” value ([1]; H9 cells) is reported as “almost completely inhibited HIV replication”. The “p24 ng/ml Mean” value ([1]; H9 cells) was 1.13 ng/mL.
With NCC(N)=O [G-NH2, glycine amide] the “Mean p24” value [3] was 0.04 ng/mL, the “inhibition of HIV-1 replication (in words)” value [3] was “inhibited HIV-1 replication” and the “inhibition of HIV replication at 20 μM (in words)” value ([1]; H9 cells, 20 μM, p24 at day 11 after infection (FIG. 4)) was “almost completely inhibited HIV replication”. For the same molecule, the “dose dependence of inhibition of HIV replication (in words)” value ([1]; H9 cells, 0.5–20 μM, p24 at day 11 after infection (FIG. 4)) was “inhibits HIV replication in a dose dependent manner”, the “concentration at which significant inhibition of HIV replication was achieved” value ([1]; H9 cells, p24 at day 11 after infection, 0.5–20 μM tested (FIG. 4)) was “less than 5 μM” and the “amount of p24 in culture supernatant compared with controls (in words)” value [1, 5] was “almost identical to that found in the non-infected control”.
NCC(=O)O [G-OH, glycine] was tested, and the “Mean p24” value [3] was 1.73 ng/mL, the “inhibition of HIV-1 replication (in words)” value [3] was “an inhibition of HIV-1 replication was not observed” and the “p24 present in the culture supernatant” value [1, 5] was “approximately 65 ng/ml”.
In the case of NCC(=O)N[C@@H](Cc1ccccc1)C(=O)NCC(N)=O [GFG-NH2, glycyl-phenylalanyl-glycine-amide] (H-Gly-Phe-Gly-NH2), the “Mean p24” value [3] is reported as 0.08 ng/mL, the “inhibition of HIV-1 replication (in words)” value [3] is reported as “inhibit HIV-1 replication” and the “effect on HIV replication/infectivity (in words)” value ([1]; H9 cells) is reported as “almost completely inhibited HIV replication”. For the same molecule, the “p24 ng/ml Mean” value ([1]; H9 cells) was 0.45 ng/mL.
With NCC(=O)NCC(=O)NCC(N)=O [GGG-NH2, glycyl-glycyl-glycine-amide, reference compound] (H-Gly-Gly-Gly-NH2) the “effect on HIV replication/infectivity (in words)” value ([1]; H9 cells) was “little affect on HIV infectivity” and the “p24 ng/ml Mean” value ([1]; H9 cells) was 61.82 ng/mL.
In the case of CC(C)C[C@H](NC(=O)CN)C(=O)NCC(N)=O [GLG-NH2, glycyl-leucyl-glycine-amide] (H-Gly-Leu-Gly-NH2), the “effect on HIV replication/infectivity (in words)” value ([1]; H9 cells) is reported as “almost completely inhibited HIV replication” and the “p24 ng/ml Mean” value ([1]; H9 cells) is reported as 2.71 ng/mL.
NCC(=O)N1CCC[C@H]1C(=O)NCC(N)=O [GPG-NH2, glycyl-prolyl-glycine-amide, reference compound] (H-Gly-Pro-Gly-NH2) was tested, and the “dense nodular structure attached” value [2] was 4%, the “treated cells carrying virus particles that had nodular structures on outer membrane” value [2] was 65% and the “nodules in cells not stimulated with PMA to produce virus (in words)” value ([4]; ACH-2 cells, 1 mM, no PMA stimulation) was “did not show such nodules”. The “dense nodular structure attached” value [4, 6] was 2%, the “treated cells carrying virus particles that had nodular structures on outer membrane” value [4, 6] was 74% and the “nodules upon combined treatment with protease inhibitor ritonavir (in words)” value ([4]; PMA stimulated ACH-2 cells, GPG-NH2 1 mM plus ritonavir 2 μM) was “gave no such nodules”. The “Mean p24” value [3] was 0.07 ng/mL, the “effect on HIV replication/infectivity (in words)” value ([1]; H9 cells) was “almost completely inhibited HIV replication” and the “p24 ng/ml Mean” value ([1]; H9 cells) was 0.42 ng/mL.
With NCC(=O)N[C@@H](Cc1c[nH]c2ccccc12)C(=O)NCC(N)=O [GWG-NH2, glycyl-tryptophanyl-glycine-amide] (H-Gly-Trp-Gly-NH2) the “Mean p24” value [3] was 0.15 ng/mL, the “inhibition of HIV-1 replication (in words)” value [3] was “inhibit HIV-1 replication” and the “effect on HIV replication/infectivity (in words)” value ([1]; H9 cells) was “almost completely inhibited HIV replication”. For the same molecule, the “p24 ng/ml Mean” value ([1]; H9 cells) was 0.61 ng/mL.
For NCC(=O)N[C@@H](Cc1ccc(O)cc1)C(=O)NCC(N)=O [GYG-NH2, glycyl-tyrosyl-glycine-amide] (H-Gly-Tyr-Gly-NH2), the “Mean p24” value [3] was 0.02 ng/mL and the “inhibition of HIV-1 replication (in words)” value [3] was “inhibited HIV-1 replication”.
In the case of CC(C)C[C@H](N)C(=O)N[C@@H](CC(N)=O)C(=O)N[C@@H](Cc1ccccc1)C(N)=O [LNF-NH2, leucyl-asparagyl-phenylalanine-amide, reference compound] (H-Leu-Asn-Phe-NH2), the “Mean p24” value [3] is reported as 1.45 ng/mL.
For “fenylalanyl-leucyl-glycine-amide [FLG-NH2]”, the “Mean p24” value [3] was 0.00 ng/mL, the “inhibition of HIV-1 replication (in words)” value [3] was “inhibit HIV-1 replication” and the “effect on HIV replication/infectivity (in words)” value ([1]; H9 cells) was “almost completely inhibited HIV replication”. The “p24 ng/ml Mean” value ([1]; H9 cells) was 0.25 ng/mL.
For “prolyl-glycine-arginine-amide [PGR-NH2, reference compound]”, the “effect on HIV replication/infectivity (in words)” value ([1]; H9 cells) was “little affect on HIV infectivity” and the “p24 ng/ml Mean” value ([1]; H9 cells) was 55.93 ng/mL.
In the case of “α-tertiary-butylglycine-prolyl-glycine-amide [tbutGPG-NH2]”, the “Mean p24” value [3] is reported as -0.01 ng/mL, the “inhibition of HIV-1 replication (in words)” value [3] is reported as “inhibit HIV-1 replication” and the “effect on HIV replication/infectivity (in words)” value ([1]; H9 cells) is reported as “almost completely inhibited HIV replication”. For the same molecule, the “p24 ng/ml Mean” value ([1]; H9 cells) was 0.44 ng/mL.
